Source: paper PMC11594562, “Novel Peptide–Drug Conjugates with Dual Anticancer Activity” (International Journal of Molecular Sciences, 2024)
Read-outs that look alike come from different tables or passages of the source. Residues, ends and D or L forms follow the SMILES beside them.

Legend:
[1] = target: Tyrosyl-DNA-phosphodiesterase 1 (TDP1); details: Figure 1; cited from earlier work
[2] = target: T1, TDP1 (Homo sapiens, UniProt Q9NUW8); test: biochemical; type: biochemical; details: for Increase in TDP1 IC50 compared to parent TDP1 inhibitor: conjugate 7 vs 4, conjugate 8 vs 5
T1 construct: made in house; host or cells: E. coli
T1 sequence (Q9NUW8 whole entry): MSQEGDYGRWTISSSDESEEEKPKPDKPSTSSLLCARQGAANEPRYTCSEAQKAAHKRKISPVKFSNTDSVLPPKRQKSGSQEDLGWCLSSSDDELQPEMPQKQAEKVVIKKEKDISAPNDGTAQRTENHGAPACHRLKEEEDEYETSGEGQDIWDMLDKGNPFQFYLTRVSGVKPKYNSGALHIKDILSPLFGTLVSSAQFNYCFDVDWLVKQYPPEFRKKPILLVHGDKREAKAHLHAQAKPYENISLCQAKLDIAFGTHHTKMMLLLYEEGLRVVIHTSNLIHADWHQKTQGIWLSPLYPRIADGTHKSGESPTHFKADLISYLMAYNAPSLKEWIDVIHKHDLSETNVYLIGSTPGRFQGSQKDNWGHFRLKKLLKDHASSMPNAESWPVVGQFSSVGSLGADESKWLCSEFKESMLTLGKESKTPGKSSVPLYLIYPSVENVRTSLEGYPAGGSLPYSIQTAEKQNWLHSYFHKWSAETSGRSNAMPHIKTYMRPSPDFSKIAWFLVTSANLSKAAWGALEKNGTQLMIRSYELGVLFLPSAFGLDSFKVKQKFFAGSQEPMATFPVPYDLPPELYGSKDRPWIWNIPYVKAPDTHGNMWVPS
Experimental: These conjugates and their individual components were tested in a real-time fluorescent assay of TDP1 inhibition.
Recombinant TDP1 protein was expressed in E. coli (the pET 16B plasmid containing TDP1 cDNA was kindly provided by Dr. K.W. Caldecott, University of Sussex, United Kingdom) and isolated as described in [60]. The final volume (200 μL) of the reaction mixture contained TDP1 reaction buffer (50 mM Tris-HCl, pH 8.0, 50 mM NaCl, 7 mM β-mercaptoethanol), 50 nM oligonucleotide substrate, and varied concentrations of the tested compounds. Purified TDP1 was added at a final concentration of 1.5 nM. The TDP1 reaction mixtures were incubated at a constant temperature of 26 °C in a POLARstar OPTIMA fluorimeter (BMG LABTECH, Offenburg, Germany). The fluorescence intensity was measured (Ex. 485/Em. 520 nm) every 1 min for 10 minutes. The efficiency of TDP1 inhibition was evaluated by comparing the rate of increase in the fluorescence of the biosensor in the presence of compound 4 or 5 to that of DMSO (1.5%) in control wells. IC50 values were determined using an eleven-point concentration response curve by MARS Data Analysis 2.0 (BMG LABTECH), and the slope during the linear phase was calculated. The IC50 measurements were carried out in at least three independent experiments.

[3] = system: MCF-7 (adenocarcinoma) cells; test: MTT cytotoxicity assay, MCF-7 cells; details: for GI50: Homo sapiens, MCF7, 48 h, read-out: Cytotoxic dose GI50; for Cytotoxic dose GI80 / Cytotoxic dose GI90: MCF-7, 48 h, MTT
Experimental: (§1) Next, the conjugates and their parent agents were evaluated in a cytotoxicity assay. Human glioblastoma (SNB19, T98G) and adenocarcinoma (MCF-7) cell lines were used in this study.
(§2) Human cancer cells of the SNB19, T98G (cells of human glioblastoma), and MCF-7 (adenocarcinoma) lines, along with cells derived from the kidney of an African green monkey (Vero), were used in this study. These cell lines were obtained from the cell collection of the State Research Center for Virology and Biotechnology “Vector” of Rospotrebnadzor, Koltsovo, Novosibirsk Region. They were cultured in DMEM/F12 medium containing 10% foetal bovine serum, L-glutamine (2 mmol/L), and gentamicin (80 µg/mL) in a CO2 incubator at 37 °C. The tested compounds were dissolved in DMSO (4 and 5) or H2O (6, 7, and 8) and added to the cellular culture at the required concentrations. Three wells were used for each concentration. The cells that were incubated without the compounds were used as controls. Cells were placed in 96-well microplates and cultivated at 37 °C in 5% CO2/95% air for 48 h. The cell viability was assessed through an MTT [3-(4,5-dimethylthiazol-2-yl)-2,5-phenyl-2H-tetrazolium bromide] conversion assay, where 1% MTT was added to each well. Four hours later, the medium was removed, leaving the formazan crystals, and isopropanol was added and mixed for 15 min. The optical density of the samples was measured on a TECAN Sunrise multi-well spectrophotometer at a wavelength of 570 nm, with a reference of 670 nm. The 50% cytotoxic dose (GI50) of each compound (i.e., the compound concentration that lowers the amount of cells to 50% in a culture, or decreases the optical density twofold as compared to the control wells) was calculated from the obtained data. Statistical processing of the results was performed using the Microsoft Excel-2007, […] 6.0, and GraphPad Prism 5.0 programs.

[4] = system: SNB19 glioblastoma cells; test: MTT cytotoxicity assay, SNB19 cells; details: for GI50: Homo sapiens, SNB-19, 48 h, read-out: Cytotoxic dose GI50; for Cytotoxic dose GI80 / Cytotoxic dose GI90: SNB19, 48 h, MTT
Experimental: as §1, §2

[5] = system: T98G glioblastoma cells; test: MTT cytotoxicity assay, T98G cells; details: T98G, 48 h; for GI50: Homo sapiens, read-out: Cytotoxic dose GI50; for Cytotoxic dose GI80 / Cytotoxic dose GI90: MTT
Experimental: as §1, §2

[6] = MTT cytotoxicity assay, non-malignant Vero cells; details: African green monkey
Source text: (§3) Against the T98G glioblastoma cells, the conjugation yields activities that are intermediate between those of the usnic acid and peptide components for both the hydrazinothiazole- and benzylidenefuranone-based candidates (4 and 5, respectively).
as §2

[7] = system: Vero cells; test: MTT cytotoxicity assay, non-malignant Vero cells; details: Vero, 48 h, MTT
Source text: as §3, §2

[8] = Solubility in water / DMSO; type: physicochemical; details: water vs DMSO
Source text: Three wells were used for each concentration.

[9] = MTT cytotoxicity assay, MCF-7 cells; details: human, MCF-7 adenocarcinoma cells
Experimental: as §1, §2

[10] = MTT cytotoxicity assay, SNB19 cells; details: human, SNB19 glioblastoma cells
Experimental: as §1, §2

[11] = MTT cytotoxicity assay, T98G cells; details: human
Experimental: as §1, §2

[12] = system: MCF-7 cells; details: native L-K6 sequence; read-out: IC50 (cytotoxicity of native sequence); cited from earlier work
[13] = Vero cells (non-malignant kidney cell line)
[14] = recombinant TDP1 1.5 nM, 50 nM substrate, 26 °C

Compound | IC50 [1] | Cytotoxic dose GI80 [3] | Cytotoxic dose GI90 [3] | Cytotoxic dose GI80 [4] | Cytotoxic dose GI90 [4] | Cytotoxic dose GI80 [5] | Cytotoxic dose GI90 [5] | Cytotoxic dose GI80 [7] | Cytotoxic dose GI90 [7] | GI50 at 48 h [9] | GI50 at 48 h [10] | GI50 at 48 h [11] | GI50 at 48 h ([6]; Vero cells) | also measured
CC(=O)c1c(O)c(C)c(O)c2c1OC1=CC(=O)/C(=C(/C)NCCCc3cc(C(C)(C)C)c(O)c(C(C)(C)C)c3)C(=O)[C@@]12C [Compound 2, reference compound] | 0.16 µM |  |  |  |  |  |  |  |  |  |  |  |  | 
CC(=O)C1=C(O)C=C2Oc3c(C(=O)CSC#N)c(O)c(C)c(O)c3[C@@]2(C)C1=O [Compound 3, reference compound] | 1.16 µM |  |  |  |  |  |  |  |  |  |  |  |  | 
CC(=O)C1=C(O)C=C2Oc3c(-c4csc(N/N=C/c5ccc(Br)cc5)n4)c(O)c(C)c(O)c3[C@@]2(C)C1=O [Compound 4] | 0.026 µM | 4.7 ± 0.21 µM | 5.5 ± 0.41 µM | 61 ± 1.78 µM | 83 ± 1.87 µM | 51 ± 1.08 µM | 90 ± 3.94 µM | 48 ± 16.76 µM | >100 µM |  |  |  |  | IC50 [2]: 0.026 ± 0.011 µM; GI50 [3]: 2.8 ± 0.07 µM; GI50 [4]: 20.5 ± 2.27 µM; GI50 [5]: 10.1 ± 0.67 µM; GI50 at 48 h [6, 13]: 4.1 ± 1.66 µM; Solubility [8]: require DMSO for solubility
CC(=O)C1=C(O)C=C2Oc3c4c(c(C)c(O)c3[C@@]2(C)C1=O)O/C(=C\c1ccc(Br)cc1)C4=O [Compound 5] | 0.15 µM | 3.9 ± 0.87 µM | 4.7 ± 1.59 µM | >100 µM | >100 µM | >100 µM | >100 µM | >100 µM | >100 µM |  |  |  |  | IC50 [2, 14]: 0.15 ± 0.03 µM; GI50 [3]: 2.2 ± 0.31 µM; GI50 [4]: > 100 µM; GI50 [5]: 21 ± 2.6 µM; GI50 at 48 h [6, 13]: > 100 µM; Solubility [8]: require DMSO for solubility
CC[C@H](C)[C@H](NC(=O)CNN)C(=O)N[C@@H](CCCCN)C(=O)N[C@@H](CCCCN)C(=O)N[C@H](C(=O)N[C@@H](CC(C)C)C(=O)N[C@@H](CO)C(=O)N[C@@H](CCCCN)C(=O)N[C@H](C(=O)N[C@@H](CCCCN)C(=O)N[C@@H](CCCCN)C(=O)N[C@@H](CC(C)C)C(=O)N[C@@H](CC(C)C)C(=O)N[C@@H](CCCCN)C(N)=O)[C@@H](C)CC)[C@@H](C)CC [Compound 6] (HELM PEPTIDE1{[NNCC(=O)[*:2]].I.K.K.I.L.S.K.I.K.K.L.L.K.[am]}$$$$V2.0) |  | 81 ± 16 µM | >100 µM | >100 µM | >100 µM | >100 µM | >100 µM | >100 µM | >100 µM | 39 ± 6.08 µM | > 100 µM | > 100 µM | 64 ± 13.7 µM | IC50 [2, 14]: 1.8 ± 0.6 µM
CC[C@H](C)[C@H](NC(=O)Cn1nc(C)c2c1C=C1Oc3c(-c4csc(N/N=C/c5ccc(Br)cc5)n4)c(O)c(C)c(O)c3[C@@]1(C)C2=O)C(=O)N[C@@H](CCCCN)C(=O)N[C@@H](CCCCN)C(=O)N[C@H](C(=O)N[C@@H](CC(C)C)C(=O)N[C@@H](CO)C(=O)N[C@@H](CCCCN)C(=O)N[C@H](C(=O)N[C@@H](CCCCN)C(=O)N[C@@H](CCCCN)C(=O)N[C@@H](CC(C)C)C(=O)N[C@@H](CC(C)C)C(=O)N[C@@H](CCCCN)C(N)=O)[C@@H](C)CC)[C@@H](C)CC [Compound 7] (HELM PEPTIDE1{[Cc1nn(CC(=O)[*:2])c2c1C(=O)[C@@]1(C)C(=C2)Oc2c(-c3csc(N/N=C/c4ccc(Br)cc4)n3)c(O)c(C)c(O)c21].I.K.K.I.L.S.K.I.K.K.L.L.K.[am]}$$$$V2.0) |  | >100 µM | >100 µM | 68 ± 3.34 µM | >100 µM | 82 ± 1.78 µM | >100 µM | >100 µM | >100 µM | 65 ± 15.3 µM | 18 ± 0.35 µM | 42 ± 3.02 µM | 33 ± 3.53 µM | Increase in TDP1 IC50 compared to parent TDP1 inhibitor [2]: approximately 6.5 fold
CC[C@H](C)[C@H](NC(=O)Cn1nc(C)c2c1C=C1Oc3c4c(c(C)c(O)c3[C@@]1(C)C2=O)O/C(=C\c1ccc(Br)cc1)C4=O)C(=O)N[C@@H](CCCCN)C(=O)N[C@@H](CCCCN)C(=O)N[C@H](C(=O)N[C@@H](CC(C)C)C(=O)N[C@@H](CO)C(=O)N[C@@H](CCCCN)C(=O)N[C@H](C(=O)N[C@@H](CCCCN)C(=O)N[C@@H](CCCCN)C(=O)N[C@@H](CC(C)C)C(=O)N[C@@H](CC(C)C)C(=O)N[C@@H](CCCCN)C(N)=O)[C@@H](C)CC)[C@@H](C)CC [Compound 8] (HELM PEPTIDE1{[Cc1nn(CC(=O)[*:2])c2c1C(=O)[C@@]1(C)C(=C2)Oc2c3c(c(C)c(O)c21)O/C(=C\c1ccc(Br)cc1)C3=O].I.K.K.I.L.S.K.I.K.K.L.L.K.[am]}$$$$V2.0) |  | 72 ± 2.4 µM | >100 µM | 56 ± 0.7 µM | 85 ± 2.32 µM | 80 ± 2.86 µM | >100 µM | >100 µM | >100 µM | 36 ± 1.24 µM | 16.5 ± 0.35 µM | 38 ± 1.22 µM | 18 ± 3.18 µM | Increase in TDP1 IC50 compared to parent TDP1 inhibitor [2]: ~2.3 fold; GI50 at 48 h ([10]; Cytotoxic dose GI50, SNB19, 48 h, MTT): 16 µM
L-K6 (IKKILSKIKKLLK; HELM PEPTIDE1{[NNCC(=O)[*:2]].I.K.K.I.L.S.K.I.K.K.L.L.K.[am]}$$$$V2.0; N-terminus assumed; SMILES CC[C@H](C)[C@H](NC(=O)CNN)C(=O)N[C@@H](CCCCN)C(=O)N[C@@H](CCCCN)C(=O)N[C@H](C(=O)N[C@@H](CC(C)C)C(=O)N[C@@H](CO)C(=O)N[C@@H](CCCCN)C(=O)N[C@H](C(=O)N[C@@H](CCCCN)C(=O)N[C@@H](CCCCN)C(=O)N[C@@H](CC(C)C)C(=O)N[C@@H](CC(C)C)C(=O)N[C@@H](CCCCN)C(N)=O)[C@@H](C)CC)[C@@H](C)CC) |  |  |  |  |  |  |  |  |  |  |  |  |  | IC50 [12]: 23 µM
